From patent US8999374B2, “Method of inhibiting salmonella in livestock and poultry” (priority 2002, dated 2015) come the findings set out here.

In this assay the test system is Salmonella enteritidis KTE-61 strain. The assay can be described thus: Inhibition test of salmonella/yeast agglutination. The format is cell-based. How it is done: Inhibition tests of salmonella agglutination were carried out on various saccharides as follows. […] Preliminary test was carried out for observing by stereoscopic microscope (OLYMPUS Co., Ltd) that agglutination occurs in this liquid mixture.
Next, in a similar manner to the aforementioned preliminary test, with the use of aqueous solution of saccharide where the aforementioned taken β-1,4-mannobiose and a mannose reagent (D-Mannose; Wako Pure Chemical Industries, Ltd.) were used instead of distilled water, the minimum concentration for inhibiting agglutination of liquid mixture (the minimum concentration for inhibiting agglutination) was obtained by varying the concentration, respectively. The actual minimum concentration for inhibiting the agglutination in liquid mixture and the relative concentration (ratio of concentration) when the minimum concentration for inhibiting agglutination of mannose is set 1 are shown in table 1.

Structures are written as SMILES.

For `OC[C@H]1O[C@@H](O[C@H]2[C@H](O)[C@H](O)C(O)O[C@@H]2CO)[C@@H](O)[C@@H](O)[C@@H]1O` (stereo partly drawn) [Mannobiose, β-1,4-mannobiose], the “minimum concentration for inhibiting agglutination, Actual Concentration” value (Salmonella enteritidis KTE-61 with yeast Candida albicans KI-102001, concentration in liquid mixture) came to 1290 µg/mL. For the same compound, under “minimum concentration for inhibiting agglutination, mannose set to 1”, the “Relative Concentration (Based on Mannose)” value is recorded as 2.173.
